A word on the inhibition: it is how much of the control response was suppressed.

In one data set the test system is melanoma. The settings on record: 100 mg/kg; cited from earlier work.
The conditions of data set [1]: 50 mg/kg bid. p.o.; cited from earlier work.
Data set [2] relates to advanced, rapidly progressive, treatment-refractory solid tumor cancers (colorectal, pancreatic, ovarian, prostate). The settings on record: cited from earlier work.
The conditions of data set [3]: dose of 25 mg/kg/day; cited from earlier work.
Data set [4] relates to MX-1 tumors. The data set is described as follows: MX-1 Breast Tumor with Taxol: MMPI BID, endpoint 1.5 g. The class given is in vivo, Mice. To be noted: MX-1 tumor. The protocol:
MDS=mean days to tumor weight of 1.5 g 4. MX-1 Breast Tumor with Taxol:
Mice were implanted with MX-1 tumors and allowed to grow to 50-100 mg. The animals were pair matched and this was considered Day 1. Treatment with MMPI was begun BID on Day 1 until the end of the experiment. […] Tumors were measured weekly until an endpoint of 1.5 g was reached.

Data set [5] has as its system MX-1 tumors. The data set is described as follows: MX-1 Adjuvant Model: cyclophosphamide then MMPI, mean days to tumor weight of 1.5 g. The class given is in vivo, Mice.
Protocol: Mice were implanted with MX-1 tumors and allowed to grow to 50-100 mm3. The animals were dosed with cyclophosphamide (100 or 80 mpk). This was considered Day 1. Two weeks later the animals were pair matched after tumor regression and dosing BID with the MMPI was begun until the end of the experiment. Tumors were measured weekly.
For the next data set, the system named is SK-mes tumors. The data set is described as follows: SK-mes Tumor with Taxol: MMPI BID, endpoint 1.0 g. The data set is classed as in vivo, Mice. On the procedure: 5. SK-mes Tumor with Taxol
Mice were implanted with SK-mes tumors and allowed to grow to 50-100 mg. The animals were pair matched and this was considered Day 1. Treatment with MMPI was begun BID on Day 1 until the end of the experiment. Taxol was injected IP (18 or 9 mpk) QD for 5 days (days 1-5). Tumors were measured weekly until an endpoint of 1.0 g was reached.

A further data set deals with PC-3 tumor cells. The data set is described as follows: Pancreatic Cell (PC-3) Model: MMP inhibitor with cisplatin, tumor volume. The settings on record: PC3 model, n=10. The data set is classed as in vivo. On the procedure:
1. Pancreatic Cell (PC-3) Model:
In this study, the test groups were a vehicle control, Compound M14, Compound M14 with cisplatin and cisplatin alone with n=10 for each group. The tumors were measured with a caliper and the volume calculated using the formula for the volume of an elipsoid. The cisplatin dose was 10 mpk administered by the intraperitonal route on day 8 post injecion of tumor cells Compound M14, 50 mpk, was first administered about 6:00 pm the evening of the same day that the tumor cells were injected in the morning. The same dose of Compound M14 was administered bid for each following day. Tumor volume (mm^3) was measured on day 25.

The test system of the next data set is HT-29 tumors. The data set is described as follows: HT-29 Tumor with Irinotecan: MMPI BID, endpoint 1.0 g. The data set is classed as in vivo, Mice. On the procedure: 6. HT-29 Tumor with Irinotecan
Mice were implanted with HT-29 tumors and allowed to grow to 50-100 mg. The animals were pair matched and this was considered Day 1. Treatment with MMPI was begun BID on Day 1 until the end of the experiment. Irinotecan was injected IP (100 or 50 mpk) QD for 5 days (days 1-5). Tumors were measured weekly until an endpoint of 1.0 g was reached.

The test system of a further data set is MX-1 breast tumor. In words: Breast Tumor Model: MX-1 with Compound M14 and Taxol, tumor volume. The data set is classed as in vivo, nude mice. To be noted: for Tumor Volume at Day 25: MX-1 model, nude mice. The protocol:
This study was carried out essentially as PC-3 model. MX-1 breast tumor pieces were implanted (with a trocar) into nude mice with n=10 per group. Dosing with Compound M14 (10 mpk or 50 mpk, PO bid) was initiated when the tumors reached a size of 60-120 mg. Dosing was continued for 26 days. Taxol was administered at a dose of 9 mpk for the first five days following the start of dosing by the interperitonal route. The tumors were measured using a caliper and the volume calculated using the formula for the volume of an elipsoid.

The conditions of data set [6]: dose dependent at 27, 125 and 375 µg; cited from earlier work.
A further data set concerns colonic epithelia. The settings on record: variety of cell model systems including colonic epithelia; cited from earlier work.
For data set [7] the following is noted: doses of 15 mg/kg/day; cited from earlier work.
The next data set has as its system Primary tumors. To be noted: cited from earlier work.
Where [8] appears, read: mmpi alone, Compound M14 20 mpk BID.
[9] abbreviates: mmpi alone, Compound M14 100 mpk BID.
Where [10] appears, read: taxol 9 mpk + Compound M14 20 mpk BID.
The mark [11] stands for this setting: taxol 9 mpk + Compound M14 100 mpk BID.
[12] abbreviates: taxol 18 mpk + Compound M14 20 mpk BID.
[13] abbreviates: taxol 18 mpk + Compound M14 100 mpk BID.

Regarding 2-Pyrolylthiochromone, the inhibition with melanoma was 37%.

For `CNC(=O)[C@H](CC1CCCCC1)NC(=O)[C@H](CC(C)C)[C@H](O)C(=O)NO` (relative stereo) [BB-1433, Butanediamide, N1-[1(cyclohexylmethyl)-2(methylamino)-2-oxoethyl]-N4,3-dihydroxy-2-(2-methylpropyl)-, [2R[N1(S*),2R*,3S*]]-], in data set [1], the “bone mineral density loss” value is recorded as “inhibited”.

As for `CNC(=O)[C@@H](NC(=O)[C@H](CC(C)C)[C@H](O)C(=O)NO)C(C)(C)C` (relative stereo) [marimastat, N4-[2,2-dimethyl-1-[(methylamino)carbonyl]propyl]-N1,2-dihydroxy-3 (2-methylpropyl)-, [2S-[N4(R*),2R*,3S*]]-)], the “most common drug-related toxicity” value in data set [2] (clinical trials) is “musculoskeletal pain and stiffness”. Further, in [2] (patients, Phase I/II), the “rise of cancer-specific antigens used as surrogate markers for biological activity” value is on record as “dose-related reduction”.

As to `CC1(C)SCCN(S(=O)(=O)c2ccc(Oc3ccc(-n4ccnc4)cc3)cc2)[C@H]1C(=O)NO` [3(S)-N-hydroxy-4-(4-[4-(imidazol-1-yl)phenoxy]benzenesulfonyl)-2,2-dimethyl-tetrahydro-2H-1,4-thiazine-3-carboxamide], the weight loss inhibition entry in data set [3] is reported as “gave 97.5%”.

Turning to `C#CCN1CCC(C(=O)NO)(S(=O)(=O)c2ccc(Sc3ccccc3)cc2)CC1.Cl` [Compound M14, N-hydroxy-4-[[4-(phenylthio)phenyl]sulfonyl]-1-(2-propynyl)-4-piperidinecarboxamide monohydrochloride], the “MDS (MDS = 1.5 g)” value was 34.7 days in the data set on MX-1 tumors [4] (setting [8]); 32.2 days with MX-1 tumors [4] (setting [9]); 39.3 days in the data set with MX-1 tumors [4] (setting [10]); 46.7 days in the data set with MX-1 tumors [4] (setting [11]); 59.3 days with MX-1 tumors [4] (setting [12]); 61 days with MX-1 tumors [4] (setting [13]). The “MDS (MDS = 1.5 g)” value with MX-1 tumors [4] (taxol + mmpi as printed, taxol 9 mpk IP QD days 1-5, no MMPI dose printed) is listed as 30.1 days; with MX-1 tumors [4] (taxol + mmpi as printed, taxol 18 mpk IP QD days 1-5, no MMPI dose printed), 56 days. The “MDS (mean days to tumor weight of 1.5 g)” value came to 53.9 days in the data set with MX-1 tumors [5] (cyclophosphamide 0 mpk (so in the source), then Compound M14 200 mpk BID); 44.2 days in the data set on MX-1 tumors [5] (cyclophosphamide 80 mpk, then Compound M14 50 mpk BID); 43.7 days in the data set with MX-1 tumors [5] (cyclophosphamide 100 mpk, then Compound M14 50 mpk BID); 52.7 days in the data set on MX-1 tumors [5] (cyclophosphamide 100 mpk, then Compound M14 200 mpk BID). The “MDS (MDS = 1.0 g)” value in the data set on SK-mes tumors (setting [8]) is on record as 18 days; in the data set on SK-mes tumors (setting [9]), 24.7 days; in the data set on SK-mes tumors (setting [10]), 34.1 days; with SK-mes tumors (setting [11]) it was 34.8 days; in the data set with SK-mes tumors (setting [12]), 39.5 days; in the data set on SK-mes tumors (setting [13]), 43 days. The “MDS (MDS = 1.0 g)” value in the data set with HT-29 tumors (Irinotecan 50 mpk + Compound M14 20 mpk BID) was 36.1 days; with HT-29 tumors (Irinotecan 50 mpk + Compound M14 100 mpk BID), 44.4 days; in the data set with HT-29 tumors (Irinotecan 100 mpk + Compound M14 20 mpk BID), 40.6 days; in the data set on HT-29 tumors (Irinotecan 100 mpk + Compound M14 100 mpk BID), 51.4 days; with HT-29 tumors (setting [8]) it was 36 days; with HT-29 tumors (setting [9]), 37.9 days. Also, the “Tumor Volume at Day 25” value with PC-3 tumor cells (Compound M14 50 mpk bid with cisplatin 10 mpk ip day 8) was determined as 110 mm^3; with PC-3 tumor cells (Compound M14 alone, 50 mpk bid), 480 mm^3; in the data set with MX-1 breast tumor (Compound M14 @ 10 mpk + taxol @ 9 mpk), 240 mm^3; in the data set with MX-1 breast tumor (Compound M14 @ 10 mpk PO bid alone), 960 mm^3; with MX-1 breast tumor (Compound M14 @ 50 mpk + taxol @ 9 mpk) it was 480 mm^3; in the data set on MX-1 breast tumor (Compound M14 @ 50 mpk PO bid alone) it was 1260 mm^3. In the data set on MX-1 breast tumor (Compound M14 10 mpk or 50 mpk PO bid for 26 days with Taxol 9 mpk for the first five days), the “response (tumor volume)” value is given as “improved response”.

Consider `CC(C)(S)[C@@H](N)C(=O)O` [D-penicillamine], for which, in data set [6], the “allergic encephalitis symptom scores” value is reported as “reduced”.

With `CCc1c2c(nc3ccc(OC(=O)N4CCC(N5CCCCC5)CC4)cc13)-c1cc3c(c(=O)n1C2)COC(=O)[C@]3(O)CC` [Irinotecan, reference compound], the figures for the “MDS (MDS = 1.0 g)” value with HT-29 tumors (Irinotecan alone 50 mpk IP QD days 1-5) and in the data set with HT-29 tumors (Irinotecan alone 100 mpk IP QD days 1-5) were 38.1 days and 36.7 days, respectively.

As for `CC(=O)O[C@H]1C(=O)[C@@]2(C)[C@H]([C@H](OC(=O)c3ccccc3)[C@]3(O)C[C@H](OC(=O)[C@H](O)[C@@H](NC(=O)c4ccccc4)c4ccccc4)C(C)=C1C3(C)C)[C@]1(OC(C)=O)CO[C@@H]1C[C@@H]2O` [Taxol, reference compound], the figures for the “MDS (MDS = 1.0 g)” value in the data set with SK-mes tumors (taxol alone 9 mpk IP QD days 1-5) and in the data set on SK-mes tumors (taxol alone 18 mpk IP QD days 1-5) were 26.1 days and 31.5 days, respectively. Besides, the “Tumor Volume at Day 25” value with MX-1 breast tumor (taxol alone, 9 mpk ip first five days) came to 1280 mm^3.

As for `C[C@H](CCC(=O)O)[C@H]1CC[C@H]2[C@@H]3[C@@H](O)C[C@@H]4C[C@H](O)CC[C@]4(C)[C@H]3CC[C@]12C` [URSO], the cytotoxicity result in the data set with colonic epithelia is listed as “non cytotoxic”. Moreover, the tolerability and toxicity result in data set [7] was “extremely well tolerated and without toxicity”.

For `N.N.[Cl][Pt][Cl]` [cisplatin, Platinum, diamminedichloro-, (SP-4-2)-, reference compound], the “Tumor Volume at Day 25” value in the data set with PC-3 tumor cells (cisplatin alone, 10 mpk intraperitoneal on day 8) is given as 630 mm^3.

As for `O=P1(N(CCCl)CCCl)NCCCO1` (stereo not shown) [cyclophosphamide, reference compound], the “MDS (mean days to tumor weight of 1.5 g)” value in the data set on MX-1 tumors [5] (cyclophosphamide 80 mpk alone) was found to be 37.2 days; in the data set with MX-1 tumors [5] (cyclophosphamide 100 mpk alone), 39.5 days.

Consider endostatin, for which, in the data set on Primary tumors (in vivo), the toxicity entry was “not observed”. Besides, in the data set with Primary tumors (non-refolded suspensions), the primary tumor response result is “regressed to dormant microscopic lesions”.

(Values after US6916800B2, “Combination therapy including a matrix metalloproteinase inhibitor and an antineoplastic agent” (Pfizer Inc, priority 1998, dated 2005).)
